Results taken from paper PMC10046037, “GABRG2 Variants Associated with Febrile Seizures” (Biomolecules, 2023).

Biological target: T1, α1β3γ2 GABAA receptor, γ2F457S variant (Homo sapiens, UniProt P14867+P18507+P28472, F457S)
T1 construct: expressed in transfected cells; host or cells: HEK293T
T1 sequence (P14867 28-456): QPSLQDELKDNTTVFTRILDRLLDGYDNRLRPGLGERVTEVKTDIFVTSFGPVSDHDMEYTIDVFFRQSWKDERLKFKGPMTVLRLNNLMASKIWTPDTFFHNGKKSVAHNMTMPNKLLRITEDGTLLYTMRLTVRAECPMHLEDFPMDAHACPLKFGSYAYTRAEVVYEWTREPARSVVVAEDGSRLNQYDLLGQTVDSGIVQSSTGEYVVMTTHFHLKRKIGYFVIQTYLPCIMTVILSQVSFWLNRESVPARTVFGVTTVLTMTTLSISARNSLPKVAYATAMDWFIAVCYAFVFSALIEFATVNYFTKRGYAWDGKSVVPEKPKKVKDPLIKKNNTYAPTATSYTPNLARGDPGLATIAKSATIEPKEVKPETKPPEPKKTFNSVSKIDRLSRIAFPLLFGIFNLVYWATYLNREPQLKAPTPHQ
T1 sequence (P28472 26-473 isoform P28472-2): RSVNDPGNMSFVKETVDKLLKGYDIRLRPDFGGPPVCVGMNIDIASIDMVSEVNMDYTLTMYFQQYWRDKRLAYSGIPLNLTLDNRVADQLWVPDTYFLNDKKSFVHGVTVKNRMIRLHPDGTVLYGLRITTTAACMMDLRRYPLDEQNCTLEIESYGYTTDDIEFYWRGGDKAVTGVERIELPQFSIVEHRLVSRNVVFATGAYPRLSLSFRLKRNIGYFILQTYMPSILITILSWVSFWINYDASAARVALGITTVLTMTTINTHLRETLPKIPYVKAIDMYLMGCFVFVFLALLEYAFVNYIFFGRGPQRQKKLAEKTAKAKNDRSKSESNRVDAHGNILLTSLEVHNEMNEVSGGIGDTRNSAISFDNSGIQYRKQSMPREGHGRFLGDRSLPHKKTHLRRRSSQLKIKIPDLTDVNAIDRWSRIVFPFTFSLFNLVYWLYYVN
T1 sequence (P18507 40-475 F457S): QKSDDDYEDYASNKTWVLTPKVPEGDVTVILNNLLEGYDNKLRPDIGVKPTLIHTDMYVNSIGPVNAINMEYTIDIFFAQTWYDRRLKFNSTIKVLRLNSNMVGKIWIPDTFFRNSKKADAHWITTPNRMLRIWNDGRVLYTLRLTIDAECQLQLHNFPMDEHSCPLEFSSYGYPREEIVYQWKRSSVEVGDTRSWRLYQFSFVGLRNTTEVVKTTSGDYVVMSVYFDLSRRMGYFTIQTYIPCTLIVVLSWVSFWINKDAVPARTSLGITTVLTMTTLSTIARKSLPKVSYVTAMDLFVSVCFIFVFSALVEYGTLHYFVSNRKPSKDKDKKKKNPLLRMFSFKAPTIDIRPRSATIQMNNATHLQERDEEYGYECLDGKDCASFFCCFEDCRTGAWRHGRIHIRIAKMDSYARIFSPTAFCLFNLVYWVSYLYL
Assay: Automated patch clamp of GABA-elicited currents (SyncroPatch 384PE), γ2F457S
Assay type: cell-based
Details: mean
Method: The coding sequences of human α1 (GABRA1, NM_000806), β3 (GABRB3, NM_021912), and γ2 (GABRG2, NM_198904.2) GABAAR subunits were subcloned into the pcDNA3.1 expression vectors (Invitrogen, Waltham, MA, USA).
HEK293T cells (ATCC, CRL-11268) were cultured at 37 °C in a humidified 5% CO2 incubator and maintained in Dulbecco’s modified Eagle’s medium (Invitrogen) supplemented with 10% fetal bovine serum (Life Technologies, Carlsbad, CA, USA), and 100 IU/mL of penicillin/streptomycin (Life Technologies). For the expression experiments, 4 × 10^5 cells were transfected using polyethylenimine (PEI) reagent (40 kD, Polysciences, Warrington, PA, USA) at a DNA: to transfection reagent ratio of 1:2.5 and harvested 36 h after transfection. To express WT and variant α1β3γ2 receptors, a total of 3 µg of α1, β3, and γ2 (WT or mutant) subunit cDNAs were transfected at a ratio of 1:1:1 into 60 mm culture dishes. For the mock-transfected condition, an empty pcDNA3.1 vector was added for a final cDNA transfection amount of 3 μg. For the electrophysiology experiments, 2.5 × 10^5 cells were plated in 100 mm culture dishes and transfected after 24 h with 3 μg of cDNA of each α1, β3, γ2 (wild-type or mutant) subunit, using X-tremeGENE HP DNA transfection Reagent (Roche Diagnostics, Basel, Switzerland), following the manufacturer’s protocol. Recordings were obtained forty-eight hours after transfection.
Whole-cell patch clamp recordings were conducted according to the manufacturer’s standard procedure for the SyncroPatch 384 [31]. Whole-cell voltage-clamp recordings were performed at room temperature on HEK293T cells 48 h after transfection with GABAAR subunits, using the SyncroPatch 384PE (Nanion Technologies, Munich, Germany). Cells, at a concentration of 400,000 cells/mL, were harvested in suspension in external solution containing 140 mM of NaCl, 2 mM of CaCl2, 4 mM of KCl, 1 mM of MgCl2, 5 mM of glucose, and 10 mM of HEPES (pH 7.4 with NaOH, 298 mOsm). The cells were loaded in a multi-hole (4 holes per well) 384-well Nanion patch clamp (NPC) chip with a thick borosilicate glass bottom and an average resistance pore size of […]. Built-in electrophysiological protocols were used, and the data were digitized using PatchControl 384 (Nanion Technologies) application. Using PatchControl 384, electrophysiological parameters, such as seal resistance, capacitance, and series resistance, were determined for each well after the application of a test pulse, and subsequently monitored over time. […] The currents were normalized to the maximal response of each well, and the concentration–response curves were calculated from single-point additions. The EC50 values for each variant or wild-type receptor were calculated across multiple wells for each experimental condition.

Question: With `NCCCC(=O)O` [GABA, γ-aminobutyric acid] as the compound, how does the Deactivation (1 mM GABA for 5 ms, HEK293T, -80 mV) read?
Answer: 224.8 ms

Question: And the “IMAX (maximal GABA-evoked peak current)” value (1 mM GABA for 5 ms, HEK293T)?
Answer: 0.44 nA

Question: What about the “IMAX variant/IMAX WT” value (1 mM GABA) of the same compound?
Answer: 21.96%

Question: And the “Rise Time” value (10–90% rise time, 1 mM GABA for 5 ms, HEK293T)?
Answer: 60.51 ms
